The values below come from US6525041B1, “Manganese or iron complexes of nitrogen-containing macrocyclic ligands effective as catalysts for dismutating superoxide” (Pharmacia Corporation, priority 1995, dated 2003).

This experiment is described as follows: Stopped-flow kinetic analysis of catalytic dismutation of superoxide. The format is biochemical. The note with it: pH=8.1 and 21° C., 80 mM Hepes buffer, absorbance at 245 nm. An excerpt: Stopped-flow kinetic analysis is an accurate and direct method for quantitatively monitoring the decay rates of superoxide in water. The stopped-flow kinetic analysis is suitable for screening compounds for SOD activity and catalytic activity of the compounds or complexes of the present invention for dismutating superoxide, as shown by stopped-flow analysis, correlate to treating the above disease states and disorders. […]
Water for buffer solutions was delivered from an in-house deionized water system to a Barnstead Nanopure Ultrapure Series 550 water system and then double distilled, first from alkaline potassium permanganate and then from a dilute EDTA solution. […] This system produces deoxygenated water that can be measured to have a conductivity of less than 2.0 nanomhos/cm^2.
The stopped-flow spectrometer system was designed and manufactured by Kinetic Instruments Inc. (Ann Arbor, Mich.) and was interfaced to a MAC IICX personal computer. […] Since the published extinction coefficient of superoxide in H2O at 245 nm is ˜2250 M^−1 cm^−1 (1), an initial absorbance value of approximately 0.3-0.5 would be expected for a 2-cm path length cell, and this was observed experimentally. […]

For `OCCCC1NCCNCCNCCNCCNC1CCCO.[Cl][Mn][Cl]` (stereo not drawn) [Example 1, [Manqanese(II)dichloro (trans-2,3-bis(3-hydroxypropyl)-1,4,7,10,13-pentaazacyclopentadecane)]], the “catalytic rate constant for dismutation of superoxide (kcal)” value is 1.8e+07 M⁻¹ s⁻¹.
